{"source": "patent US20080181972A1", "about": "“Compositions and Methods for Maintaining, Strengthening, Improving, or Promoting Eye Health” (priority 2007, published 2008)", "origin": "cited, not measured here", "key": {"[1]": {"system": "H2O2 formation", "settings": "both in vitro and in vivo"}, "[2]": {"settings": "phytoestrogenic isoflavones"}, "[3]": {"system": "LDL", "settings": "conjugated diene, lipid peroxides and TBARS after cupric sulfate"}, "[4]": {"system": "bovine aortic endothelial cell- and human endothelial cell-mediated LDL oxidation", "settings": "bovine aortic and human endothelial cells"}, "[5]": {"settings": "in vivo"}, "[6]": {"system": "intracellular GSH", "settings": "in vitro (cell culture)"}, "[7]": {"system": "intracellular GSH in lung, liver and kidney cells", "settings": "in vivo, liver and kidney cells of mice injected daily with 4, 8, or 16 mg/kg for 11 days"}, "[8]": {"system": "human endothelial cell cultures"}, "[9]": {"system": "retina of diabetic rats"}, "[10]": {"settings": "long-term feeding to rats, 1% in drinking water"}, "[11]": {"settings": "short- and long-term studies"}, "[12]": {"system": "AGE from Amadori adducts", "settings": "in vitro and in vivo studies"}}, "data": [{"molecule": "O=C1O[C@H]([C@@H](O)CO)C(O)=C1O", "note": "[vitamin C, Ascorbic acid]", "values": [{"measurement": "daily intake without any known adverse effects", "setting": "consumed daily", "result": "≥ 1,000 mg"}]}, {"molecule": "O=c1c(-c2ccc(O)cc2)coc2cc(O)cc(O)c12", "note": "[genistein]", "values": [{"measurement": "tumor promoter-induced H2O2 formation", "setting": "[1]", "result": "strongly inhibited"}, {"measurement": "order of reactivity in scavenging the radical in the aqueous phase", "setting": "[2]", "result": "genistein>daidzein=genistin approximately equal to biochanin A=daidzein>formononentin approximately equal to onionin"}, {"measurement": "order of ability to reduce LDL oxidizability", "setting": "[3]", "result": "quercetine>morin>pelargonidin>genistein>naringin>apigenin"}, {"measurement": "endothelial cell-mediated LDL oxidation", "setting": "[4]", "result": "inhibited"}]}, {"molecule": "CC1=C(/C=C/C(C)=C/C=C/C(C)=C/C=C/C=C(C)/C=C/C=C(C)/C=C/C2=C(C)CCCC2(C)C)C(C)(C)CCC1", "note": "[beta-carotene, Beta-carotene]", "values": [{"measurement": "efficiency of conversion to vitamin A in the body", "setting": "[5]", "result": "approximately 50%"}, {"measurement": "dosage level with no observed adverse effects", "setting": "healthy, non-smokers", "result": "≤ 25", "unit": "mg per day"}, {"measurement": "adverse effects observed", "setting": "individuals who receive 20 mg/day", "result": "increased risk of fatal coronary heart attacks in men with previous myocardial infarction and an increased risk of lung cancer among male smokers"}]}, {"molecule": "CC1=C(/C=C/C(C)=C/C=C/C(C)=C/C=C/C=C(C)/C=C/C=C(C)/C=C/C2=C(C)C(=O)[C@@H](O)CC2(C)C)C(C)(C)C[C@H](O)C1=O", "note": "[Astaxanthin]", "values": [{"measurement": "ill effects", "setting": "daily dose of 19.25 mg over 29 days, healthy humans", "result": "no ill effects"}]}, {"molecule": "O=C(O)CCCCC1CCSS1", "note": "(stereo not drawn) [ALA, Alpha-lipoic acid]", "values": [{"measurement": "increase of intracellular GSH levels", "setting": "[6]", "result": "30-70%"}, {"measurement": "increase of intracellular GSH levels", "setting": "[7]", "result": "30-70%"}]}, {"molecule": "CC(=O)Oc1c(C)c(C)c2c(c1C)CC[C@@](C)(CCC[C@H](C)CCC[C@H](C)CCCC(C)C)O2", "note": "(racemic) [DL-α-tocopheryl acetate]", "values": [{"measurement": "level at which no adverse effects have been observed", "setting": "in vivo", "result": "≤ 800", "unit": "mg"}]}, {"molecule": "C/C(=C(\\CCOP(=O)(O)O)SC(=O)c1ccccc1)N(C=O)Cc1cnc(C)nc1N", "note": "[benfotiamine]", "values": [{"measurement": "AGE generation", "setting": "[8]", "result": "effective in reducing AGE generation"}, {"measurement": "AGE accumulation in the retina", "setting": "[9]", "result": "preventing AGE accumulation"}]}, {"molecule": "NC(=O)c1cccnc1", "note": "[niacinamide]", "values": [{"measurement": "carcinogenic effects", "setting": "[10]", "result": "No carcinogenic effects"}, {"measurement": "toxicity", "setting": "[11]", "result": "low toxicity"}]}, {"molecule": "Cc1ncc(C[n+]2csc(CCO)c2C)c(N)n1", "note": "[thiamine]", "values": [{"measurement": "AGE generation", "setting": "[8]", "result": "effective in reducing AGE generation"}, {"measurement": "AGE accumulation in the retina", "setting": "[9]", "result": "preventing AGE accumulation"}]}, {"molecule": "Cc1ncc(CO)c(CN)c1O", "note": "[PM, pyridoxamine]", "values": [{"measurement": "inhibition of the formation of AGE from Amadori adducts", "setting": "[12]", "result": "potent inhibitor"}]}]}
